Our source for the IC50 values is patent publication US20240262842A1, “SMALL MOLECULE INHIBITORS OF KRAS G12C MUTANT” (Merck Sharp & Dohme LLC, priority 2021, published 2024).

In one assay the test system is MIA PaCa-2 cells. The experiment in a line: Growth inhibition activity on KRAS-G12C mutant cell line (CellTiter-Glo 3D). The class given is cell-based, human. The note with it: MIA PaCa-2, 3-day culture with compound. In a few lines:
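MIA PaCa-2 cells in RPMI1640 with 10% FBS, U-bottom wells, cultured 1 day before compound (0.2% DMSO final), then 3 days at 37 °C, 5% CO2. Viability by CellTiter-Glo 3D luminescence; growth inhibition versus untreated wells gives IC50 (nM).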
In general terms: In ATP-based viability assays light output follows the ATP content of the culture.

The target in assay [1] is T1, interaction between GMPPNP-bound recombinant K-Ras4B G12C mutant protein and cRAF RAS-binding domain (cRAF-RBD) (Homo sapiens, UniProt P01116, G12C).
T1 construct: His-tag (N)
The experiment in a line: Inhibitory activity on interaction between KRAS G12C and cRAF (Alpha technology). In a few lines:
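His-tagged K-Ras4B G12C (aa 1-169), GMPPNP-loaded, preincubated with compound 1 h at 25° C in pH 7.5 Tris buffer with MgCl2, TCEP, Tween 20. cRAF-RBD (aa 50-132) and Alpha reagents then added for 1.5 h; Alpha signal normalised to DMSO (0%) and GDP-bound KRAS (100%); IC50 from dose titration.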

[2] abbreviates: Homo sapiens, MIA PaCa-2, 72 h, Table 3.
The mark [3] stands for this setting: IC50, GMPPNP-bound KRAS G12C incubated with compound 25° C. 1 hour, Table 2.
[4] abbreviates: Homo sapiens, MIA PaCa-2, 72 h, Table 3-1.
Setting [5] is: GMPPNP-bound KRAS G12C incubated with compound 25° C. 1 hour, Table 2-1, read-out: IC50.
[6] abbreviates: GMPPNP-bound KRAS G12C incubated with compound 25° C. 1 hour, Table 2, read-out: IC50.

Read-outs that look alike come from different tables or passages of the source.

T1 sequence (P01116 with tags, fused parts or gaps isoform P01116-2 G12C): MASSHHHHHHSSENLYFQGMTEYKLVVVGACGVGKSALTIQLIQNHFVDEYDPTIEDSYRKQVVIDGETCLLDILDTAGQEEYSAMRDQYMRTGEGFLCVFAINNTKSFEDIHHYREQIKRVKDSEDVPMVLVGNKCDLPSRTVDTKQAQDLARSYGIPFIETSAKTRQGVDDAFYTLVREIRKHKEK

As to `CO[C@H]1CC[C@H](NC/C=C/C(=O)Nc2c(F)cc(C(=O)c3cn4c5c(cccc35)-c3c(C)cc5c(nc(C)n5C)c3OC[C@H]4C)cc2F)CC1` [Example 17, (E)-N-(2,6-difluoro-4-((R)-6,8,9,13-tetramethyl-12,13-dihydro-8H-imidazo[4″,5″;3′,4′]benzo[1′,2:7,8][1,4]oxazocino[6,5,4-hi]indole-2-carbonyl)phenyl)-4-(((1,4r)-4-methoxycyclohexyl)amino)but-2-enamide], the IC50 (usually the concentration that gives 50% inhibition) in the assay on MIA PaCa-2 cells (setting [2]) was found to be 820 nM; in assay [1] (setting [3]) it was 1300 nM.
Turning to `COc1cc2c(nc(C)n2C)c2c1-c1cccn3c(C(=O)c4cc(F)c(NC(=O)/C=C/CN[C@@H]5CCCOC5)c(F)c4)cc(c13)CCN2C` [Example 133], the IC50 amounted to 6.45 nM in the assay on MIA PaCa-2 cells (setting [4]) and 11.4 nM in assay [1] (setting [5]).
Consider `COCCn1c(COC)nc2c3c(c(OC)cc21)-c1cccn2c(C(=O)c4cc(F)c(NC(=O)/C=C/CN[C@H]5CCOC5)c(F)c4)cc(c12)CCN3C` (single isomer, unassigned) [Example 247], for which the IC50 in the assay with MIA PaCa-2 cells (setting [4]) is 28.5 nM; in assay [1] (setting [5]), 23.4 nM.
`CO[C@H]1CC[C@H](NC/C=C/C(=O)Nc2c(F)cc(C(=O)c3nn4c5c(cccc35)-c3c(C(F)(F)F)cc5c(nc(C)n5C)c3OCC4)cc2F)CC1` [Example 46, (E)-N-(4-(8,9-dimethyl-6-(trifluoromethyl)-12,13-dihydro-8H-imidazo[4″,5″:3′4′]benzo[1′,2′:7,8][1,4]oxazocino[6,5,4-hi]indazole-2-carbonyl)-2,6-difluorophenyl)-4-(((1r,4r)-4-methoxycyclohexyl)amino)but-2-enamide]: the IC50 in the assay with MIA PaCa-2 cells (setting [2]) was 57 nM; in assay [1] (setting [6]), 140 nM.
Consider `COCC1(NC/C=C/C(=O)Nc2c(F)cc(C(=O)c3cc4c5c(cccn35)-c3c(C(F)(F)F)cc5c(ncn5C)c3N(C)CC4)cc2F)CCCC1` [Example 127, (E)-N-(4-(9,12-dimethyl-7-(trifluoromethyl)-9,12,13,14-tetrahydro-imidazo[4″,5″:5′,6′]benzo-[1′,2′:2,3]azocino[4,5,6-hi]indolizine-2-carbonyl)-2,6-difluorophenyl)-4-((1-(methoxymethyl)cyclo-pentyl)amino)but-2-en-amide], for which the IC50 with MIA PaCa-2 cells (setting [4]) is 22.5 nM; in assay [1] (setting [5]), 16.8 nM.
Taken in the same sequence, the figures for `Cn1cnc2c3c(c(C(F)(F)F)cc21)-c1cccn2c(C(=O)c4cc(F)c(NC(=O)/C=C/CN5CC6CCC5CO6)c(F)c4)cc(c12)CCO3` (stereo not shown) [Example 220, (E)-4-(2-oxa-5-aza-bicyclo[2.2.2]octan-5-yl)-N-(2,6-difluoro-4-(9-methyl-7-(trifluorometh-yl)-13,14-dihydro-9H-imidazo[4″,5″:5′,6′]benzo-[1′,2′:2,3]oxocino[4,5,6-hi]indolizine-2-carbonyl)-phenyl)but-2-enamide] were 6.52 nM and 24.4 nM.
Taken in the same sequence, the figures for `Cc1cc2c(C)n(C)nc2c2c1-c1cccn3c(C(=O)c4cc(F)c(NC(=O)/C=C/CNC5(C)COC5)c(F)c4)cc(c13)CCN2C` (single isomer, unassigned) [Example 145, (E)-N-(2,6-difluoro-4-(7,9,10,12-tetramethyl-10,12,13,14-tetrahydro-indolizino[8′,1′:4,5,6]-azocino[3,2-g]indazole-2-carbonyl)phenyl)4-((3-methyloxetan-3-yl)-amino)-but-2-enamide] were 162 nM and 72.3 nM.
With `CO[C@H]1CC[C@H](NC/C=C/C(=O)Nc2c(F)cc(C(=O)c3cn4c5c(cccc35)-c3c(C)cc5c(nc(C)n5C)c3OC[C@@H](C)C4)cc2F)CC1` [Example 22, (E)-N-(2,6-difluoro-4-((S)-6,8,9,13-tetramethyl-13,14-dihydro-8H, 12H-imidazo[4″,5″:3′,4′]benzo[1′,248,9][1,5]oxazonino[7,6,5-hi]indole-2-carbonyl)phenyl)-4-(((1,4r)-4-methoxycyclohexyl)amino)but-2-enamide], the IC50 (in the assay with MIA PaCa-2 cells (setting [2]); in assay [1] (setting [3])) was 100 nM in each case.
`CN1CCc2cc(C(=O)c3cc(F)c(NC(=O)/C=C/CNC4(C)COC4)c(F)c3)n3cccc(c23)-c2c(C(F)(F)F)cc3c(ncn3C3CC3)c21` (single isomer, unassigned) [Example 153, (E)-N-(4-(9-cyclopropyl-12-methyl-7-(trifluoro-methyl)-9,12,13,14-tetra-hydroimidazo[4″,5″:5′,6′]-benzo[1′,2′:2,3]azocino-[4,5,6-hi]indolizine-2-carbonyl)-2,6-difluoro-phenyl)-4-((3-methyloxe-tan-3-yl)amino)but-2-enamide]: the values for the IC50 (in the assay with MIA PaCa-2 cells (setting [4]); in assay [1] (setting [5])) were 118 nM and 31.5 nM, respectively.
Taken in the same sequence, the figures for `Cn1cnc2c3c(c(C(F)(F)F)cc21)-c1cccn2c(C(=O)c4cc(F)c(NC(=O)/C=C/CN5CC[C@H](O)C5)c(F)c4)cc(c12)CCO3` [Example 150, (S,E)-N-(2,6-difluoro-4-(9-methyl-7-(trifluoro-methyl)-13,14-dihydro-9H-imidazo[4″,5″:5′,6′]-benzo[1′,2′:2,3]oxocino-[4,5,6-hi]indolizine-2-carbonyl)phenyl)-4-(3-hydroxypyrrolidin-1-yl)-but-2-enamide] were 31.2 nM and 17.1 nM.
Regarding `COCc1nc2c3c(c(OC)cc2n1C)-c1cccn2c(C(=O)c4cc(F)c(NC(=O)/C=C/CN5CCCC5)c(F)c4)cc(c12)CCN3C` (single isomer, unassigned) [Example 188, (E)-N-(2,6-difluoro-4-(7-methoxy-10-(methoxy-methyl)-9,12-dimethyl-9,12,13,14-tetrahydro-imidazo[4″,5″:5′,6′]benzo-[1,2:2,3]azocino[4,5,6-hi]indolizine-2-carbonyl)-phenyl)-4-(pyrrolidin-1-yl)but-2-enamide], the IC50 in the assay on MIA PaCa-2 cells (setting [4]) stood at 39.7 nM; in assay [1] (setting [5]) it was 72.5 nM.
Turning to `CO[C@H]1CC[C@H](NC/C=C/C(=O)Nc2c(F)cc(C(=O)c3cn4c5c(cccc35)-c3c(C)cccc3OCC4)cc2F)CC1` [Example 6, (E)-N-(2,6-difluoro-4-(10-methyl-4,5-dihydrobenzo[7,8][1,4]oxazocino[6,5,4-hi]indole-1-carbonyl)phenyl)-4-(((1r,4r)-4-methoxycyclohexyl)amino)but-2-enamide], the IC50 in the assay with MIA PaCa-2 cells (setting [2]) amounted to 670 nM; in assay [1] (setting [3]), 160 nM.
In the same order, the values of `Cc1cc2c(nc(C)n2C)c2c1-c1cccc3c(C(=O)c4cc(F)c(NC(=O)/C=C/CNC(C)(C)C)c(F)c4)cn(c13)CCO2` [Example 13, (E)-4-(tert-butylamino)-N-(2,6-difluoro-4-(6,8,9-trimethyl-12,13-dihydro-SH-imidazo[4″,5″:3′,4′]benzo[1′,2:7,8][1,4]oxazocino[6,5,4-hi]indole-2-carbonyl)phenyl)but-2-enamide] are 59 nM and 17 nM.
For `CO[C@H]1CC[C@H](NC/C=C/C(=O)Nc2c(F)cc(C(=O)c3cc4c5c(cccn35)-c3c(C(F)(F)F)cc5c(nc(C)n5C)c3OCC4)cc2F)CC1` (single isomer, unassigned) [Example 30-1, (E)-N-(4-(9,10-dimethyl-7-(trifluoromethyl)-13,14-dihydro-9H-imidazo[4″,5″:5′,6′]benzo[1′,2′:2,3]oxocino[4,5,6-hi]indolizine-2-carbonyl)-2,6-difluorophenyl)-4-(((1r,4r)-4-methoxycyclohexyl)amino)but-2-enamide], the IC50 in the assay with MIA PaCa-2 cells (Table 3) came to 3 nM; in assay [1] (setting [6]), 7 nM.
With `CO[C@H]1CC[C@H](NC/C=C/C(=O)Nc2c(F)cc(C(=O)c3cn4c5c(cccc35)-c3c(C(F)(F)F)cc5c(nc(C)n5C)c3N(C)CC4)cc2F)CC1` (single isomer, unassigned) [Example 55, (E)-N-(2,6-difluoro-4-(8,9,11-trimethyl-6-(tri-fluoromethyl)-8,11,12,13-tetrahydroimidazo[4″,5″: 5′,6′]benzo[1′,2′:5,6][1,4]-diazocino[7,8,1-hi]indole-2-carbonyl)phenyl)-4-(((1r,4r)-4-methoxycyclo-hexyl)amino)but-2-en-amide], the IC50 stood at 3.36 nM in the assay on MIA PaCa-2 cells (setting [4]) and 11.7 nM in assay [1] (IC50, GMPPNP-bound KRAS G12C incubated with compound 25° C. 1 hour, Table 2-1).
With `Cn1cnc2c3c(c(C(F)(F)F)cc21)-c1cccn2c(C(=O)c4cc(F)c(NC(=O)/C=C/CN5C6CCCC5CC6)c(F)c4)cc(c12)CCO3` [Example 235, (E)-4-((1R,5S)-8-azabicyclo[3.2.1]octan-8-yl)-N-(2,6-difluoro-4-(9-methyl-7-(trifluoro-methyl)-13,14-dihydro-9H-imidazo[4″,5″:5′,6′]-benzo[1′,2′:2,3]oxocino-[4,5,6-hi]indolizine-2-carbonyl)phenyl)but-2-enamide], the results for the IC50 (in the assay on MIA PaCa-2 cells (setting [4]); in assay [1] (setting [5])) were 17 nM and 21.9 nM, respectively.
Regarding `COCCn1c(C)nc2c3c(c(OC)cc21)-c1cccn2c(C(=O)c4cc(F)c(NC(=O)/C=C/CNC5(C)CC5)c(F)c4)cc(c12)CCN3C` (single isomer, unassigned) [Example 200, (E)-N-(2,6-difluoro-4-(7-methoxy-9-(2-methoxyethyl)-10,12-dimethyl-9,12,13,14-tetrahydroimidazo[4″,5″:5′,6′]benzo[1′,2′:2,3]azocino[4,5,6-hi]indolizine-2-carbonyl)phenyl)-4-((1-methylcyclopropyl)amino)but-2-enamide], the values for the IC50 (in the assay on MIA PaCa-2 cells (setting [4]); in assay [1] (setting [5])) were 4.62 nM and 13.7 nM, respectively.
